Values after ≈ are worked out from the molar mass of the structure shown. Like-named read-outs stand apart in the source and are kept apart here.
Experiments:
[1] = test system: Absidia corymbifera 272; test: In vitro antifungal susceptibility, broth microdilution; type: cell-based; settings: read-out: MIC (IC50) AC
[2] = test system: Candida tropicalis 156; test: as above; type: cell-based; settings: read-out: MIC (IC80) CT
[3] = test system: Trichophyton mentagrophytes 445; test: as above; type: cell-based; settings: read-out: MIC (IC50) TM
[4] = test system: photosynthetic electron transport (PET) in spinach chloroplasts; test: Inhibition of photosynthetic electron transport (PET) in spinach chloroplasts; type: biochemical, Spinacia oleracea L.; settings: DCPIP photoreduction
Procedure: Chloroplasts were prepared from spinach (Spinacia oleracea L.) according to Masarovicova and Kralova. The inhibition of the photosynthetic electron transport (PET) in spinach chloroplasts was determined spectrophotometrically (Genesys 6, Thermo Fisher Scientific, Waltham, MA, USA) using an artificial electron acceptor 2,6-dichlorophenol-indophenol (DCIPP) according to Kralova et al. and the rate of photosynthetic electron transport was monitored as a photoreduction of DCPIP. The measurements were carried out in a phosphate buffer (0.02 mol/L, pH 7.2) containing sucrose (0.4 mol/L), MgCl2 (0.005 mol/L) and NaCl (0.015 mol/L). The chlorophyll content was 30 mg/L in these experiments and the samples were irradiated (~100 W/m^2 with 10 cm distance) with a halogen lamp (250 W) using a 4 cm water filter to prevent warming of the samples (suspension temperature 22 °C). The compounds studied were dissolved in DMSO due to their limited water solubility. […] The inhibitory efficiency of the compounds studied was expressed by IC50 values, i.e., by the molar concentration of the compounds that caused a 50% decrease in the oxygen evolution rate relative to the untreated control.

[5] = test system: Candida krusei ATCC 6258; test: In vitro antifungal susceptibility, broth microdilution; type: cell-based; settings: Pichia kudriavzevii, read-out: MIC (IC80) CK
[6] = test system: Candida glabrata 20/I; test: as above; type: cell-based; settings: Nakaseomyces glabratus, read-out: MIC (IC80) CG
[7] = test system: Aspergillus fumigatus 231; test: as above; type: cell-based; settings: read-out: MIC (IC50) AF
[8] = test system: Candida albicans ATCC 44859; test: as above; type: cell-based; settings: read-out: MIC (IC80) CA
[9] = Lipophilicity determination using RP-HPLC (capacity factor, log k); type: physicochemical; settings: C18, MeOH 55%/H2O 45%
Description: Reversed phase high performance liquid chromatography (RP-HPLC) methods have become popular and are widely used for lipophilicity measurements. The general procedure is the measurement of the directly accessible retention time under isocratic conditions using varying amounts of methanol as an organic modifier in the mobile phase using RP columns and calculating the logarithm of the capacity factors (log k). Log k is the logarithm of the capacity factors in chromatographic approaches that is related to the partitioning of a compound between a mobile and a (pseudo-)stationary phase. Log k is used as the lipophilicity index converted to log P scale.
A Waters Alliance 2695 XE HPLC separation module and a Waters Photodiode Array Detector 2996 (Waters Corp., Milford, MA, USA) were used. A Symmetry® C18 5 μm, 4.6 × 250 mm, Part No. WAT054275 (Waters Corp.) chromatographic column was used. The HPLC separation process was monitored using Empower™ 2 Chromatography Data Software, Waters 2009 (Waters Corp.). A mixture of MeOH p.a. (55%) and H2O-HPLC-Mili-Q Grade (45%) was used as a mobile phase. The total flow of the column was 0.9 mL/min, injection volume 30 μL, column temperature 30 °C and sample temperature 10 °C. A detection wavelength of 210 nm was chosen. A KI methanolic solution was used for the determination of dead time (tD). Retention times (tR) were measured in minutes. The capacity factors k were calculated using the Empower™ 2 Chromatography Data Software according to the formula k = (tR − tD)/tD, where tR is the retention time of the solute, whereas tD denotes the dead time obtained using an unretained analyte. Log k, calculated from the capacity factor k, is used as the lipophilicity index converted to log P scale.

[10] = test system: HCT-116 human colon cancer cells (p53 wild type); parameters: method as in PMID 22858101; settings: footnote 3: anticancer activity described elsewhere ref [34],[44]; cited from earlier work
[11] = test system: Trichosporon beigelii 1188; test: In vitro antifungal susceptibility, broth microdilution; type: cell-based; settings: read-out: MIC (IC80) TB
Description: The broth microdilution test was used for the assessment of the in vitro antifungal activity of the synthesized compounds against Candida albicans ATCC 44859 (CA), Candida tropicalis 156 (CT), Candida krusei ATCC 6258 (CK), Candida glabrata 20/I (CG), Trichosporon beigelii 1188 (TB), Aspergillus fumigatus 231 (AF), Absidia corymbifera 272 (AC), and Trichophyton mentagrophytes 445 (TM). Fluconazole (FLU) was used as the standard since it is a clinically used antimycotic drug. The procedure was performed using a twofold dilution of the compounds in RPMI 1640 (Sevapharma a.s., Prague, Czech Republic) buffered to pH 7.0 with […] of 3-morpholino-propane-1-sulfonic acid (MOPS, Sigma, Prague, Czech Republic). The final concentrations of the compounds ranged from 500 to 0.975 μmol/L. Drug-free controls were included. The determination of minimum inhibitory concentration (MIC) was performed according to the Clinical and Laboratory Standards Institute (CLSI, formerly NCCLS) reference protocol M27-A2 for yeasts (IC80 value) and M38-A for moulds (IC50 value). IC80 and IC50 were defined as an 80% resp. 50% or greater reduction in growth in comparison with the control. The values of MICs were determined after 24 and 48 h of static incubation at 35 °C. The final MICs for T. mentagrophytes, were determined after 72 and 120 h of incubation.

[12] = Lichtheimia corymbifera, 272, 24 h and 48 h, only one value presented (inactive)
[13] = Candida tropicalis, 156, 24 h and 48 h, only one value presented (inactive)
[14] = Trichophyton mentagrophytes, 445, 72 h and 120 h, only one value presented (inactive)
[15] = ATCC6258, 24 h and 48 h, only one value presented (inactive)
[16] = 24 h and 48 h, only one value presented (inactive)
[17] = Aspergillus fumigatus, 231, 24 h and 48 h, only one value presented (inactive)
[18] = ATCC44859, 24 h and 48 h, only one value presented (inactive)
[19] = Trichosporon beigelii, 1188, 24 h and 48 h, only one value presented (inactive)
[20] = Lichtheimia corymbifera, 272, 24 h
[21] = Lichtheimia corymbifera, 272, 48 h
[22] = Trichophyton mentagrophytes, 445, 72 h
[23] = Trichophyton mentagrophytes, 445, 120 h
[24] = Aspergillus fumigatus, 231, 24 h
[25] = Aspergillus fumigatus, 231, 48 h
[26] = Trichosporon beigelii, 1188, 24 h
[27] = Trichosporon beigelii, 1188, 48 h

SMILES | IC50 [1, 12] | MIC [2, 13] | IC50 [3, 14] | MIC [5, 15] | MIC [6, 16] | IC50 [7, 17] | MIC [8, 18] | log k [9] | IC50 [10] | MIC [11, 19] | IC50 [1, 20] | IC50 [1, 21] | MIC ([2]; Candida tropicalis, 156, 24 h) | MIC ([2]; Candida tropicalis, 156, 48 h) | IC50 [3, 22] | IC50 [3, 23] | MIC ([5]; ATCC6258, 24 h) | MIC ([5]; ATCC6258, 48 h) | MIC ([6]; 24 h) | MIC ([6]; 48 h) | also measured
CNC(=S)NN=Cc1ccc2cccc(O)c2n1 [Compound 4e] | > 125 µM | > 125 µM | > 125 µM | > 125 µM | > 125 µM | > 125 µM | > 125 µM | 0.6236 | 1.71 ± 0.34 µM | > 125 µM |  |  |  |  |  |  |  |  |  |  | IC50 [4]: 302 µM
Oc1ccc2cccnc2c1C=NNC(=S)Nc1ccccc1 [Compound 4l] |  |  |  |  |  |  |  | 0.6748 | 16.3 ± 1.69 µM |  | 15.6 µM | 62.5 µM | 125 µM (≈ 40.3 µg/mL) | 125 µM (≈ 40.3 µg/mL) | 15.6 µM | 15.6 µM | 31.2 µM (≈ 10.1 µg/mL) | 125 µM (≈ 40.3 µg/mL) | 15.6 µM (≈ 5.04 µg/mL) | 31.2 µM (≈ 10.1 µg/mL) | IC50 [7, 24]: 125 µM; IC50 [7, 25]: 125 µM; MIC ([8]; ATCC44859, 24 h): 31.2 µM (≈ 10.1 µg/mL); MIC ([8]; ATCC44859, 48 h): 62.5 µM (≈ 20.1 µg/mL); MIC [11, 26]: 15.6 µM (≈ 5.04 µg/mL); MIC [11, 27]: 125 µM (≈ 40.3 µg/mL)
CCNC(=S)N/N=C/c1ccc(Br)cc1 [Compound 3n, (E)-2-(4-Bromobenzylidene)-N-ethylhydrazinecarbothioamide] | > 500 µM | > 500 µM | > 500 µM | > 500 µM | > 500 µM | > 500 µM | > 500 µM | 0.7568 | > 60 µM | > 500 µM |  |  |  |  |  |  |  |  |  |  | 
NC(=S)N/N=C/c1cccc(Cl)c1Cl [Compound 3a, (E)-2-(2,3-Dichlorobenzylidene)hydrazinecarbothioamide] | > 125 µM | > 125 µM | > 125 µM | > 125 µM | > 125 µM | > 125 µM | > 125 µM | 0.6892 | 41.5 ± 1.7 µM | > 125 µM |  |  |  |  |  |  |  |  |  |  | 
Oc1cccc2ccc(C=NNC(=S)Nc3ccccc3)nc12 [Compound 4h] |  |  |  |  |  |  |  | 0.7548 | 25 ± 4.29 µM |  | > 125 µM | > 125 µM | > 125 µM | > 125 µM | > 125 µM | > 125 µM | > 125 µM | > 125 µM | > 125 µM | > 125 µM | IC50 [7, 24]: > 125 µM; IC50 [7, 25]: > 125 µM; MIC ([8]; ATCC44859, 24 h): > 125 µM; MIC ([8]; ATCC44859, 48 h): > 125 µM; MIC [11, 26]: > 125 µM; MIC [11, 27]: > 125 µM
CCNC(=S)N/N=C/c1cccc(Cl)c1Cl [Compound 3d, (E)-2-(2,3-Dichlorobenzylidene)-N-ethylhydrazinecarbothioamide] | > 500 µM | > 500 µM | > 500 µM | > 500 µM | > 500 µM | > 500 µM | > 500 µM | 0.7958 | 58.5 ± 0.2 µM | > 500 µM |  |  |  |  |  |  |  |  |  |  | 
CNC(=S)NN=Cc1c(O)ccc2cccnc12 [Compound 4i] |  |  |  |  |  |  |  | 0.6193 | > 25 µM |  | > 500 µM | > 500 µM | > 500 µM | > 500 µM | > 500 µM | > 500 µM | > 500 µM | > 500 µM | > 500 µM | > 500 µM | IC50 [7, 24]: > 500 µM; IC50 [7, 25]: > 500 µM; MIC ([8]; ATCC44859, 24 h): > 500 µM; MIC ([8]; ATCC44859, 48 h): > 500 µM; MIC [11, 26]: > 500 µM; MIC [11, 27]: > 500 µM
CCNC(=S)NN=Cc1c(O)ccc2cccnc12 [Compound 4k] |  |  |  |  |  |  |  | 0.6539 | > 25 µM |  | > 500 µM | > 500 µM | > 500 µM | > 500 µM | 62.5 µM | 62.5 µM | > 500 µM | > 500 µM | 62.5 µM (≈ 17.1 µg/mL) | 500 µM (≈ 137 µg/mL) | IC50 [7, 24]: > 500 µM; IC50 [7, 25]: > 500 µM; MIC ([8]; ATCC44859, 24 h): > 500 µM; MIC ([8]; ATCC44859, 48 h): > 500 µM; MIC [11, 26]: > 500 µM; MIC [11, 27]: > 500 µM
